In PubChem BioAssay AID504702 (Southern Research Specialized Biocontainment Screening …, 2011):
“And” between values parts separate entries of the source, which are not always exact repeats. Equal entries are not always repeated. The source made the active and inactive calls. No rule for the calls is given here.

Experiments:
[1] = M. tuberculosis growth inhibition with meropenem, dose response, H37Rv, set 2 (AID 504702);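 also: growth read by Alamar Blue after 7 days plus overnight incubation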; settings: M. tuberculosis H37Rv with meropenem, growth inhibition
[2] = test system: M. tuberculosis H37Rv with meropenem, growth inhibition; assay: as above; settings: for IC90: measured here: IC90 growth with meropenem

## Cc1ccc(OC(C)C(=O)Nc2ncccn2)c(C)c1 (stereo unspecified)
[1]; at 25 µM (top of the series)
  growth inhibition: 3.48% (inactive)

## N/C(=N\c1nc2ccccc2o1)NC(=O)c1ccccc1
[1]; at 25 µM (top of the series)
  growth inhibition: 2.3% (inactive)

## N/C(=N\c1nc2ccccc2o1)NC(=O)c1ccccc1Br
[2]
  IC50: 3.04 µM
  IC90: > 25 µM

## COc1ccc2oc(C(=O)Nc3nc4ccccc4[nH]3)c(C)c2c1
[2]
  IC90: > 25 µM

## O=C(CCS(=O)(=O)c1ccc(F)cc1)Nc1nnc(-c2cccs2)o1
[2]
  IC50: 22.4 µM
  IC90: > 25 µM

## COc1ccc2nc(NC(=O)C(C)Oc3ccccc3)sc2c1 (stereo unspecified)
[1]; at 25 µM (top of the series)
  growth inhibition: -2.23% (inactive)

## CC(Oc1ccc(Cl)cc1)C(=O)Nc1nc2ccccc2s1 (stereo unspecified)
[1]; at 25 µM (top of the series)
  growth inhibition: -2.09% (inactive)

## Cc1ccccc1OCC(=O)Nc1ncn[nH]1
[1]; at 25 µM (top of the series)
  growth inhibition: 0.97% (inactive)

## O=C(Nc1ccccc1)Nc1csc2ccccc12
[2]
  IC50: 0.49 µM and 0.2 µM
  IC90: > 25 µM

## COC(=O)c1sc(-c2ccc(C(C)(C)C)cc2)cc1NC(=O)CCC(=O)O
[2]
  IC50: 3.46 µM and 7.32 µM
  IC90: > 25 µM

## CCOc1ccc2nc(NC(=O)COc3ccc(OC)cc3)sc2c1
[1]; at 25 µM (top of the series)
  growth inhibition: -8.22% (inactive)

## CC(=O)c1c(C)n(-c2ccccc2)c2ccccc12
[2]
  IC50: 11.6 µM
  IC90: > 25 µM

## Cc1ccccc1OCC(=O)Nc1nnn(C)n1
[1]; at 25 µM (top of the series)
  growth inhibition: 0.35% (inactive)

## COc1ccc2nc(NC(=O)COc3ccc(Cl)cc3)sc2c1
[1]; at 25 µM (top of the series)
  growth inhibition: 0.35% (inactive)

## N/C(=N\c1nc2cc(Cl)ccc2o1)NC(=O)c1ccccc1
[1]; at 25 µM (top of the series)
  growth inhibition: -0.66% (inactive)

## CCOc1ccc2nc(NC(=O)COc3ccccc3)sc2c1
[1]; at 25 µM (top of the series)
  growth inhibition: -8.57% (inactive)

## Cc1cc2cc(F)ccc2n1-c1ccccc1
[1]; at 25 µM (top of the series)
  growth inhibition: 5.53% (inactive)

## Cc1ccccc1C(=O)Nc1nc2ccccc2[nH]1
[2]
  IC50: 8.75 µM
  IC90: > 25 µM

## CCOc1ccc(NC(=O)COc2ccc(C)cc2C)cc1
[1]; at 25 µM (top of the series)
  growth inhibition: -3.23% (inactive)

## COc1cccc(NC(=O)C2CC2)c1
[2]
  IC50: 0.58 µM and 3.28 µM
  IC90: > 25 µM

## Cc1cc2ccccc2[nH]1
[1]; at 25 µM (top of the series)
  growth inhibition: 0.33% (inactive)

## COc1ccc(C(=O)Nc2ccc3nc(N4CCCCC4)cc(C)c3c2)c(OC)c1
[2]
  IC50: 17.6 µM
  IC90: > 25 µM

## N/C(=N\c1nc2ccccc2o1)NC(=O)c1ccc(F)cc1
[2]
  IC50: 9.64 µM
  IC90: > 25 µM

## O=C(OC(C(=O)Nc1ccc(Cl)cc1C(F)(F)F)c1ccccc1)C1=COCCO1 (stereo unspecified)
[2]
  IC50: 3.17 µM
  IC90: > 25 µM

## COC(=O)c1c(C)[nH]c2ccc(Cl)cc12
[1]; at 25 µM (top of the series)
  growth inhibition: -8.83% (inactive)

## CC(=O)c1c(C)n(-c2ccccc2C)c2ccc(O)cc12
[1]; at 25 µM (top of the series)
  growth inhibition: -1.1% (inactive)

## CCCOc1ccc2c(c1)c(C(C)=O)c(C)n2-c1ccccc1
[1]; at 25 µM (top of the series)
  growth inhibition: 20.4% (inactive)

## COC(=O)c1c(C)[nH]c2ccc(F)cc12
[1]; at 25 µM (top of the series)
  growth inhibition: -3.53% (inactive)

## CC(=O)c1c(C)n(-c2ccccc2)c2ccc(OC(C)C)cc12
[1]; at 25 µM (top of the series)
  growth inhibition: 8.61% (inactive)

## Cc1ccc(OCC(=O)Nc2cccc3c(NC(=O)COc4ccc(C)cc4C)cccc23)c(C)c1
[1]; at 25 µM (top of the series)
  growth inhibition: -7.16% (inactive)

## O=C(CC12CC3CC(CC(C3)C1)C2)NCc1ccc(F)cc1
[1]; at 18.8 µM (top of the series)
  growth inhibition: -0.16% (inactive)
[1]; at 25 µM (top of the series)
  growth inhibition: -0.41% (inactive)

## COC(=O)c1ccc2nc(NC(=O)COc3ccccc3)sc2c1
[1]; at 25 µM (top of the series)
  growth inhibition: 15.1% (inactive)

## CC(=O)c1c(C)n(-c2cccc(Cl)c2)c2ccc(O)cc12
[1]; at 25 µM (top of the series)
  growth inhibition: -2.38% (inactive)

## CC(C)(Oc1ccc(Cl)cc1)C(=O)Nc1nc2ccccc2s1
[1]; at 25 µM (top of the series)
  growth inhibition: 1.22% (inactive)

## COc1ccccc1C(=O)N/C(N)=N/c1nc2ccccc2o1
[1]; at 25 µM (top of the series)
  growth inhibition: 0.18% (inactive)

## Cc1ccc2oc(/N=C(\N)NC(=O)c3ccccc3)nc2c1
[1]; at 25 µM (top of the series)
  growth inhibition: 5.09% (inactive)

## CC(=O)c1c(C)n(-c2ccccc2)c2ccc(O)cc12
[2]
  IC50: 20.1 µM
  IC90: > 25 µM

## CCC(CC)c1nnc(NC(=O)c2ccc(N3CCCCC3)c([N+](=O)[O-])c2)s1
[1]; at 25 µM (top of the series)
  growth inhibition: 2.49% (inactive)

## CCOc1ccc2[nH]cc(C(=O)OC)c2c1
[2]
  IC90: > 25 µM

## CC(=O)Nc1ccc2nc(NC(=O)COc3ccccc3)sc2c1
[1]; at 25 µM (top of the series)
  growth inhibition: -0.49% (inactive)

## O=C(COc1ccccc1Cl)Nc1nc2ccccc2s1
[1]; at 25 µM (top of the series)
  growth inhibition: -4.37% (inactive)

## COc1ccc(Cl)cc1C(=O)Nc1nc2ccccc2[nH]1
[2]
  IC50: 16.2 µM
  IC90: > 25 µM

## COc1ccc2nc(NC(=O)COc3ccccc3)sc2c1
[1]; at 25 µM (top of the series)
  growth inhibition: -1.31% (inactive)

## CCOc1ccc2nc(NC(=O)c3cnccn3)sc2c1
[1]; at 18.8 µM (top of the series)
  growth inhibition: -0.94% (inactive)
[1]; at 25 µM (top of the series)
  growth inhibition: 20.9% (inactive)

## Cc1ccccc1OCC(=O)Nc1ncccn1
[1]; at 25 µM (top of the series)
  growth inhibition: 3.04% (inactive)

## Cc1cc2ccccc2n1-c1ccccc1
[1]; at 25 µM (top of the series)
  growth inhibition: -0.06% (inactive)

## Cc1ccc2sc(NC(=O)COc3ccccc3)nc2c1C
[1]; at 25 µM (top of the series)
  growth inhibition: 14.4% (inactive)

## Cc1onc(-c2c(Cl)cccc2Cl)c1/C(N)=N/OC(=O)C1CC1
[2]
  IC50: 1.47 µM
  IC90: > 25 µM

## CCOc1ccc2nc(NC(=O)C3(c4ccccc4)CCCC3)sc2c1
[2]
  IC50: 1.2 µM
  IC90: 4.16 µM

## O=C(COc1ccc2c3c(c(=O)oc2c1)CCC3)Nc1nc2ccccc2[nH]1
[1]; at 25 µM (top of the series)
  growth inhibition: -4.95% (inactive)

## Cc1cccc(C)c1OCC(=O)Nc1nc2ccc(Cl)cc2s1
[1]; at 25 µM (top of the series)
  growth inhibition: -2.26% (inactive)

## Cc1ccc(OCC(=O)Nc2cccc3ncccc23)c(C)c1
[1]; at 25 µM (top of the series)
  growth inhibition: 1.76% (inactive)

## Cc1cc2cc(F)ccc2[nH]1
[1]; at 25 µM (top of the series)
  growth inhibition: 1.92% (inactive)

## Cc1cccc(C)c1OCC(=O)Nc1nc2ccccc2s1
[1]; at 25 µM (top of the series)
  growth inhibition: -9.19% (inactive)

## N/C(=N\c1nc2ccccc2o1)NC(=O)C1CC1
[1]; at 25 µM (top of the series)
  growth inhibition: 9.34% (inactive)
